In patent US20010006656A1, “METHODS AND COMPOSITIONS FOR INHIBITING INFLAMMATION ASSOCIATED WITH PULMONARY DISEASE” (UNIVERSITY OF WASHINGTON, priority 1999, published 2001):

Columns and labels:
[1] = test system: Jurkat cell adherence to FN; assay: Jurkat cell adherence to fibronectin (calcein-AM fluorescence); assay type: cell-based; details: for reversal of the inhibitory effect of lovastatin on PMA-stimulated Jurkat cell adhesion: co-incubated with lovastatin 2.5 days
Description: (§1) Briefly, Jurkat and U937 cells (American Type Culture Collection; Manassas Va.) were maintained in Earles Modified Eagles Medium (EMEM; M. A. Bioproducts, Walkersville, Md.) supplemented with 10% fetal bovine serum (FBS; Hyclone Laboratories Inc.; Logan Utah), 5 mM glutamine (Life Technologies Inc.; Gaithersburg Md.), 5 mM sodium pyruvate (Life Technologies), and […] (Life Technologies). Lovastatin (Calbiochem; San Diego Calif.) was converted to open acid form before use. […] The solution was heated to 50° C. for two hours. To this heated solution, 4.5 ml of an aqueous solution containing 81 mM NaH2PO4 and […] was added. The solution was heated to 40° C. for 30 min and the pH was adjusted to 7.3 with concentrated HCl. The final concentration was determined by UV spectroscopy (ε231 =21,490 M^−1cm^−1). The stock solution was frozen in small aliquots.
Cell adhesion of Jurkat cells and U937 cells to fibronectin (FN) or laminin (LN), respectively, was measured. Human FN (1.25 μg/ml)(Collaborative Research Inc.; Bedford Mass.) or human LN (100 μg/ml)(Life Technologies) was coated onto 96-well PRO-BIND assay plate (Falcon; Becton Dickinson; Lincoln Park N.J.) by incubating overnight at 4° C. The plate was then blocked with 3% bovine serum albumin (BSA) in phosphate buffered saline (PBS) at room temperature for one hour. Immediately before use, plates were washed three times with PBS.
(§2) After centrifugation for seven min at 300 xg, cells were resuspended in 1 ml phenol red-free medium and then labeled by incubation with 5 μl of the fluorescent dye calcein-AM (1 mg/ml in DMSO; Molecular Probes; Eugene Oreg.) for 30 min at room temperature in the dark. The cells were then washed twice with phenol red-free medium. After incubation with phorbol 12-myristate 13--acetate (PMA) (100 ng/ml) (Sigma; St. Louis Mo.), which is an activator of protein kinase C (PKC), or MAb 8A2 (2 μg/ml) for 30 min in control medium at room temperature, cells (˜1×10^5/well) were added to triplicate wells. After incubation for 30 min at 37° C., the total cells in the well were analyzed using a fluorescence plate reader (PerSeptive Biosystem; Framingham Mass.). Unbound cells were removed by washing the plate three times with phenol red-free medium, and the plate was then reanalyzed to determine fluorescence of bound cells. After subtraction of background, the percent adherence was calculated as the emission at 530 nm of bound cells divided by the […] of total cells.

RhoA = RhoA immunoblot (electrophoretic mobility as measure of isoprenylation) in Jurkat cells; assay type: cell-based
Description: Cell lysates were subjected to immunoblot analysis to assess RhoA electrophcoretic mobility as a measurement of isoprenylation. For RhoA blots, membranes were sequentially incubated with rabbit anti-RhoA antibody (Santa Cruz Biotechnology, Inc.) in TBST at room temperature for three hours, washed with TBST five times, incubated with goat anti-rabbit IgG (H+L) conjugated with horse radish peroxidase (HRP) (Bio-Rad Laboratories; Hercules Calif.) for one hour, and then washed with TBST five times. RhoA bands were visualized on x-ray film by incubation of membrane with chemiluminescence luminol reagent (Santa Cruz Biotechnology) at room temperature for one minute.

ERK1 = assay: Immunoblot for phosphorylated ERK1 in PMA-treated Jurkat cells; assay type: cell-based
[2] = test system: neutrophil (PMN) and mononuclear cell migration into lung; assay: PMA-induced pulmonary inflammation in mice, cell counts in lung lavage fluid; assay type: in vivo; details: i.n. lovastatin 7.0 μg/g with i.n. PMA; 24 hours
Description: (§3) Pulmonary inflammation was induced in mice using a technique similar to that reported by others (Szarka et al., J. Immunol. Methods 202:49-57 (1997)). Briefly, mice were anesthetized with halothane, then 2.5 μl/g was placed into their nares where it was rapidly taken into the trachea and deep into the lungs. […] Compounds were administered in a given amount per g of mouse body weight. In a second set of experiments, PMA (50 ng/μl final concentration; 5 mg/ml stock solution in dimethyl sulfoxide) was used in place of LPS. Mice were allowed to recover from anesthesia and returned to their cages with free access to food and water.
At either 24 (LPS and PMA) or 48 (LPS) hours, mice were returned to the laboratory and killed, their chest rapidly opened, then both lungs were lavaged with 0.5 ml of normal saline followed by a second lavage of another 0.5 ml of normal saline that was lavaged in and out four times. The lavage fluid was combined, total cell counts determined using a hemocytometer, cytospin preparations were then made, the cells stained using the commercial kit (DiffQuik; Baxter Healthcare Corp.; Miami Fla.), and differential cells counts completed. The total number of mononuclear cells and neutrophils in the lavage fluid was determined by counting 100 cells. The number of neutrophils or macrophages was determined by multiplying the percentages by the total cell count. […]

[3] = test system: neutrophil (PMN) and mononuclear cell migration into lung; assay: LPS-induced pulmonary inflammation in mice, cell counts in lung lavage fluid; assay type: in vivo
Description: as §3
At either 24 (LPS and PMA) or 48 (LPS) hours, mice were returned to the laboratory and killed, their chest rapidly opened, then both lungs were lavaged with 0.5 ml of normal saline followed by a second lavage of another 0.5 ml of normal saline that was lavaged in and out four times. The lavage fluid was combined, total cell counts determined using a hemocytometer, cytospin preparations were then made, the cells stained using the commercial kit (DiffQuik; Baxter Healthcare Corp.; Miami Fla.), and differential cells counts completed. The total number of mononuclear cells and neutrophils in the lavage fluid was determined by counting 100 cells. The number of neutrophils or macrophages was determined by multiplying the percentages by the total cell count. Differences between groups were tested using the computer program Stat View (Abacus Concepts; Berkeley Calif.) by analysis of variances and post hoc testing using Fisher's protected least square differences. Differences were assumed significant for p<0.05. The lavage fluid remaining after cytospin and cell counts was subjected to centrifugation, and the supernatant collected and frozen at −20° C. for later cytokine analysis. […] Thus, lavage fluid was derived from regions where LPS was deposited as well as those regions receiving no challenge.
The LPS was given at the same time as the last dose of lovastatin by i.n. instillation as described above. […] Mice were returned to their cages with free access to food and water for 24 hours, then returned to the laboratory and killed. Lavage was performed and cell counts completed as described above.

[4] = Mouse hind limb ischemia and reperfusion, leg diameter; assay type: in vivo; details: 7 μg/g i.p. at beginning of 30 min ischemia; 24 hours; t-test
Description: Briefly, mice were anesthetized with halothane. A tourniquet was then placed on one hind limb to completely occlude blood flow and kept in place for 30 min. Body temperature was maintained at 37° C. with a heating blanket during the period of ischemia. Perfusion of the hind limb was re-established by removal of the tourniquet, and leg diameter was measured hourly for the next 6 hours and again at 24 hours.

KC = KC chemokine ELISA in lung lavage fluid of LPS-challenged mice; assay type: in vivo, murine
Description: (§4) Lavage fluids were used to measure cytokine production. The murine chemoattractant KC is a member of the CXC chemokine family of inflammatory cytokines and was measured by ELISA (R&D Systems; Minneapolis Minn.). The pro-inflammatory cytokine murine TNFα was also measured by ELISA (R&D Systems). The protocol for both assays was similar. Briefly, assay diluent was mixed with sample, which was the lavage fluid obtained as described in Example IV. The diluent was added to the appropriate capture plate and incubated for two hours. Plates were washed, incubated with conjugated anti-KC or anti-TNFα antibody for two hours, washed again, and then incubated with substrate for 30 min. A stop solution was then added, and the optical density determined by plate reader.

TNFα = TNFα ELISA in lung lavage fluid of LPS-challenged mice; assay type: in vivo, murine
Description: as §4

[5] = test system: U937 cell adherence to LN; assay: U937 cell adherence to laminin (calcein-AM fluorescence); assay type: cell-based
Description: as §1
Cell adhesion of Jurkat cells and U937 cells to fibronectin (FN) or laminin (LN), respectively, was measured. Human FN (1.25 μg/ml)(Collaborative Research Inc.; Bedford Mass.) or human LN (100 μg/ml)(Life Technologies) was coated onto 96-well PRO-BIND assay plate (Falcon; Becton Dickinson; Lincoln Park N.J.) by incubating overnight at 4° C. […]
as §2, with “The cells were then washed twice with phenol red-free medium. After incubation with phorbol 12-myristate 13--acetate (PMA) (100 ng/ml) (Sigma; St. Louis Mo.), which is an activator of protein kinase C (PKC), or MAb 8A2 (2 μg/ml) for 30 min in control medium at room temperature, cells (˜1×10^5/well) were added to triplicate wells.” left out

## CC(C)=CCC/C(C)=C/CC/C(C)=C/CO [FOH, trans, trans-farnesol]
[1]
  reversal of the inhibitory effect of lovastatin on PMA-stimulated Jurkat cell adhesion: not

## CC(C)=CCC/C(C)=C/CC/C(C)=C/CC/C(C)=C/CO [GGOH, all trans-geranylgeraniol]
[1]; 10 μM lovastatin (FIG. 3B)
  concentration required to rescue Jurkat cell from the inhibitory effect of lovastatin: 2.5 µM
[1]
  reversal of the inhibitory effect of lovastatin on PMA-stimulated Jurkat cell adhesion: reversed
RhoA; GGOH 5 μM with lovastatin
  RhoA migration on addition with lovastatin: more rapid migration of RhoA as seen in untreated cells

## COc1cccc(-c2cc(=O)c3ccccc3o2)c1N [PD-98059]
[1]; 10 μM, 30 min pre-incubation before PMA
  PMA-stimulated Jurkat cell adherence: did not inhibit
ERK1; Jurkat cells pre-incubated 30 min with MEK-1 inhibitor before PMA
  ERK1 phosphorylation: completely blocked

## CC[C@H](C)C(=O)O[C@H]1C[C@@H](C)C=C2C=C[C@H](C)[C@H](CC[C@@H]3C[C@@H](O)CC(=O)O3)[C@H]21 [lovastatin]
[2]
  inhibition of PMN emigration: ~100%
  mononuclear cell number, control vs lovastatin treatment: no difference
[3]; i.n. lovastatin 0.7 μg/g with i.n. LPS, 24 hours
  percent of PMNs in lavage fluid compared with the control group: 74%
[3]; i.n. lovastatin 0.7 μg/g with i.n. LPS, 48 hours
  percent of PMNs in lavage fluid compared with the control group: 75%
[3]; i.n. lovastatin 1.4 μg/g with i.n. LPS, 24 hours
  percent of PMNs in lavage fluid compared with the control group: 28%
[3]; i.n. lovastatin 1.4 μg/g with i.n. LPS, 48 hours
  percent of PMNs in lavage fluid compared with the control group: 32%
[3]; i.n. lovastatin 7.0 μg/g with i.n. LPS, 24 hours
  percent of PMNs in lavage fluid compared with the control group: 4%
[3]; i.n. lovastatin 7.0 μg/g with i.n. LPS, 48 hours
  percent of PMNs in lavage fluid compared with the control group: 5%
[3]; i.n. lovastatin with i.n. LPS, 24 hours
  total number of lavage mononuclear leukocytes: no effect
[3]; i.n. lovastatin with i.n. LPS, 48 hours, differences not statistically significant
  number of mononuclear leukocytes in lavage fluid: somewhat less
[3]; i.p. lovastatin 7.0 μg/g daily x3, i.n. LPS, 24 hours, p<0.05
  number of PMNs accumulating, percent of control group: 30%
[3]; i.p. lovastatin 7.0 μg/g, i.n. LPS, 24 hours
  number of mononuclear leukocytes in lavage fluid: not different between groups
[1]; 8A2 2 μg/ml, 2.5 days pretreatment
  effect on mAb 8A2-stimulated Jurkat cell adherence to FN: no significant effect
[1]; concentration greater than 5 μM, 2.5 days pretreatment
  inhibition of PMA-stimulated Jurkat cell adherence to FN: nearly completely inhibited
[4]
  leg diameter after ischemia and reperfusion, vehicle vs lovastatin: significantly larger diameter than the lovastatin treated leg
RhoA; 14 μM lovastatin
  isoprenylation state of RhoA: Most RhoA was in non-isoprenylated form
RhoA; Jurkat cells, 2.5 days
  concentration at which geranylgeranylation of RhoA was significantly inhibited: ≥ 0.5 µM
KC; i.n. lovastatin, 24 hours after LPS, 7.0 μg/g group significantly different from control
  concentration of KC chemokine in the lavage fluid: reduced
KC; i.n. lovastatin, 48 hours after LPS, four groups
  KC concentration in the lavage fluid: not different
KC; i.p. lovastatin pretreatment, 24 hours after i.n. LPS
  KC concentration in the lavage fluid: significant reduction
TNFα; i.n. lovastatin, 24 hours, all doses significant vs control
  TNF concentration in lavage fluid: reduced in a dose-dependent manner
TNFα; i.n. lovastatin, 48 hours
  TNF concentration in lavage fluid, differences from control: not significant
TNFα; i.p. lovastatin, 24 hours after i.n. LPS, statistically significant
  TNF production: effective in preventing TNF production
ERK1; Jurkat cells, lovastatin 2.5 days, concentrations up to 40 μM, PMA 100 ng/ml 30 min
  PMA-stimulated MAPK (ERK1) phosphorylation: does not inhibit
[5]; lovastatin pretreatment, 8A2 2 μg/ml
  inhibition of mAb 8A2-stimulated adherence of U937 cells to LN: not
[5]; lovastatin pretreatment, PMA 100 ng/ml
  inhibition of PMA-stimulated adherence of U937 cells to LN: inhibited
[5]; no pretreatment
  effect on stimulated adherence when added at the time of the adhesion assay instead of pretreating: without effect
